ChEMBL document CHEMBL1141768, “Constituents of Vittaria anguste-elongata and their biological activities” (J Nat Prod, 2005)

What was measured:
Format in all cases: functional
[1] = system: Radical scavenging activity; test: Antioxidant activity assessed as DPPH free radical scavenging activity after 30 mins
NCI-H460 = test: Cytotoxicity against human NCI-H460 cells at 58 uM
SF-268 = test: Cytotoxicity against human SF268 cells at 58 uM

| Compound | IC50 [1] [µM] | inhibition at 58 µM (NCI-H460) [%] | inhibition at 58 µM (SF-268) [%] |
| --- | --- | --- | --- |
| CCOC(=O)[C@]1(O)C[C@@H](O)[C@H](OC(=O)/C=C/c2ccc(O)c(O)c2)[C@H](O)C1 | 234 | – | – |
| C[C@H]1OC(=O)[C@@H](O)[C@@H]1OC(=O)/C=C/c1ccc(O)c(O)c1 | 290 | – | – |
| COc1cc(-c2cc(=O)c3c(O)cc(O)cc3o2)cc(OC)c1OC | – | 89 | 61 |
| O=C(/C=C/c1ccc(O)c(O)c1)OC[C@H](O)[C@H]1OC(=O)[C@H](O)[C@H]1O | 91 | – | – |
| VITAMIN E | 350 | – | – |
